Assay: xn = mol fraction of the nth substance listed
Settings: 100 kPa

C[n+]1ccn(CCCC#N)c1.O=S(=O)([O-])C(F)(F)F + O=C1CCCO1
electrical conductivity [S/m]
Settings	x1 = 0.1003	x1 = 0.2001	x1 = 0.3003	x1 = 0.3999	x1 = 0.4999	x1 = 0.6002	x1 = 0.7001	x1 = 0.8002	x1 = 0.9004	x1 = 1
288.15 K	0.725	0.798	–	0.353	0.261	–	0.118	0.084	0.05	–
293.15 K	0.834	0.906	0.623	0.434	0.318	0.232	0.156	0.11	–	0.034
298.15 K	0.95	1.02	0.726	0.521	0.385	0.283	0.201	0.142	–	0.048
303.15 K	1.07	1.14	0.835	0.617	–	0.341	0.252	–	–	0.064
308.15 K	1.2	1.26	0.951	0.718	0.539	–	0.309	0.221	0.153	–
313.15 K	1.33	1.4	–	0.83	0.625	–	–	0.269	0.19	0.106
318.15 K	1.48	1.53	1.21	0.947	0.721	0.554	0.441	–	–	–
323.15 K	1.61	1.68	–	1.07	0.821	0.642	0.513	–	–	–
328.15 K	1.76	1.83	1.49	1.2	0.927	0.733	0.592	0.449	0.333	0.205
333.15 K	1.91	1.98	1.64	–	1.04	0.832	0.675	0.52	0.392	0.25
338.15 K	2.07	2.14	–	1.46	1.17	0.945	0.761	0.596	0.454	–
343.15 K	2.22	2.3	1.95	1.6	1.29	1.05	–	0.677	0.519	0.355

Source: a compilation of properties of binary mixtures (doi:10.1016/j.molliq.2022.120052)
